Like-named read-outs stand apart in the source and are kept apart here.
Columns and labels:
SARS-CoV-2 = assay: microbe, parasite or virus in culture; assay type: cell-based; conditions: for SI (selectivity index, CC50/IC50): Vero-E6 cells; for IC50: read-out: IC50 Mean ± SD (SARS-CoV-2 infection)
Vero-E6 cells = conditions: for CC50: read-out: CC50 Mean ± SD, Vero-E6 cells, 24 h at 37° C., no virus, alamarBlue
[1] = molecular target: T1, ACE2:RBD-mimic1 peptide interaction (Homo sapiens, UniProt Q9BYF1); assay: Direct competition SPR: compound vs RBD-mimic1 peptide binding to human ACE2; conditions: compound and RBD-mimic1 peptide flowed at 1 μM over human ACE2
T1 construct: purchased R&D Systems and Assay Matrix (ACE2); Mimotopes (peptide)
Description: Peptide alone, compound alone and the competition. Percentage competition is calculated by the reduction in final peptide binding divided by the difference between the peptide and the compound alone.
All SPR sensorgrams and results plots were analyzed with Biacore S200 Evaluation Software (GE Healthcare Life Sciences).

T1 sequence (Q9BYF1 18-740 limits assumed): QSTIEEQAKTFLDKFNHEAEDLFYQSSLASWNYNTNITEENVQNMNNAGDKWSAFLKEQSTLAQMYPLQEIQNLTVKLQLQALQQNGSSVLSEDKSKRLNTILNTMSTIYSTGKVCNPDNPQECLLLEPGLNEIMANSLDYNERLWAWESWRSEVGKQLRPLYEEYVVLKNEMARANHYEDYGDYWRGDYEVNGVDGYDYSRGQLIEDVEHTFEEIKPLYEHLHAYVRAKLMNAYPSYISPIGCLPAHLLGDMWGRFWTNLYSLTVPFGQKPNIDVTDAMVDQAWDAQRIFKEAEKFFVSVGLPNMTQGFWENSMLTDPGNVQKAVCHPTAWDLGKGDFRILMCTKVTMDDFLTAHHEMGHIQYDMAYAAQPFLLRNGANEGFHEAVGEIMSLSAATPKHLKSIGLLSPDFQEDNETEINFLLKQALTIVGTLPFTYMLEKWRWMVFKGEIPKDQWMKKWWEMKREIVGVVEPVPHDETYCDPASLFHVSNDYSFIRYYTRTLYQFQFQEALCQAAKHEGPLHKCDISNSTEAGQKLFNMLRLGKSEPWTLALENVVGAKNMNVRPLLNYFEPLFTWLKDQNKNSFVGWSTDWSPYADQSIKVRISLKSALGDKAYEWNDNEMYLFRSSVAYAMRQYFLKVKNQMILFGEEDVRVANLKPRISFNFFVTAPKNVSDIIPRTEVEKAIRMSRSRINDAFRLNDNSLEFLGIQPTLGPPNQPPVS

| Compound | SI (selectivity index, CC50/IC50) (SARS-CoV-2) | IC50 (SARS-CoV-2) | toxicity toward Vero-E6 cells in the infection assay (Vero-E6 cells) | CC50 (Vero-E6 cells) | 1:1 Competition between compound vs RBD-mimic1 peptide @ 1 μM (block: Yes/Partial) [1] | 1:1 Competition between compound vs RBD-mimic1 peptide @ 1 μM (percentage competition) [1] | IC50 (SARS-CoV-2; Severe acute respiratory syndrome coronavirus 2, Vero C1008, 24 h) |
| --- | --- | --- | --- | --- | --- | --- | --- |
| Cc1cc(-c2ccc(/N=N/c3ccc4c(S(=O)(=O)[O-])cc(S(=O)(=O)[O-])c(N)c4c3O)c(C)c2)ccc1/N=N/c1ccc2c(S(=O)(=O)[O-])cc(S(=O)(=O)[O-])c(N)c2c1O.[Na+].[Na+].[Na+].[Na+] [Evans Blue] | >35.6 | 28.1 ± 1.2 µM | low toxicity | > 1000 µM | completely block and Yes | ~100% | – |
| CCc1c2c(nc3ccc(OC(=O)N4CCC(N5CCCCC5)CC4)cc13)-c1cc3c(c(=O)n1C2)COC(=O)[C@]3(O)CC [Irinotecan] | – | – | toxicity was observed | – | Yes | (100% ± 6.36) | – |
| Cc1ccc(C(=O)Nc2ccc(S(=O)(=O)O)c3cc(S(=O)(=O)O)cc(S(=O)(=O)O)c23)cc1NC(=O)c1cccc(NC(=O)Nc2cccc(C(=O)Nc3cc(C(=O)Nc4ccc(S(=O)(=O)O)c5cc(S(=O)(=O)O)cc(S(=O)(=O)O)c45)ccc3C)c2)c1 [Suramin] | >21.6 | – | – | > 1000 µM | – | – | 28.1 ± 1.2 µM |
| COC[C@H]1C[C@@H](c2nc(-c3ccc4c(c3)COc3cc5c(ccc6nc([C@@H]7CC[C@H](C)N7C(=O)[C@@H](NC(=O)OC)C(C)C)[nH]c65)cc3-4)c[nH]2)N(C(=O)[C@H](NC(=O)OC)c2ccccc2)C1 [Velpatasvir] | – | – | toxicity was observed | – | Partial | – | – |
| CC1(C)CCC(CN2CCN(c3ccc(C(=O)NS(=O)(=O)c4ccc(NCC5CCOCC5)c([N+](=O)[O-])c4)c(Oc4cnc5[nH]ccc5c4)c3)CC2)=C(c2ccc(Cl)cc2)C1 [Venetoclax] | – | – | toxicity was observed | – | Partial | – | – |
| Ledipasvir | – | – | toxicity was observed | – | Partial | – | – |
